# Experimental data as given in patent US20090082372A1, “Arylmethylene Substituted N-Acyl-Beta-Amino Alcohols” (priority 2007, published 2009).
# Biological target: T1, human FSH receptor (Homo sapiens, UniProt P23945)
# T1 construct: expressed in transfected cells; host or cells: CHO cells (hFSHR clone 16)
# T1 sequence (P23945 18-695): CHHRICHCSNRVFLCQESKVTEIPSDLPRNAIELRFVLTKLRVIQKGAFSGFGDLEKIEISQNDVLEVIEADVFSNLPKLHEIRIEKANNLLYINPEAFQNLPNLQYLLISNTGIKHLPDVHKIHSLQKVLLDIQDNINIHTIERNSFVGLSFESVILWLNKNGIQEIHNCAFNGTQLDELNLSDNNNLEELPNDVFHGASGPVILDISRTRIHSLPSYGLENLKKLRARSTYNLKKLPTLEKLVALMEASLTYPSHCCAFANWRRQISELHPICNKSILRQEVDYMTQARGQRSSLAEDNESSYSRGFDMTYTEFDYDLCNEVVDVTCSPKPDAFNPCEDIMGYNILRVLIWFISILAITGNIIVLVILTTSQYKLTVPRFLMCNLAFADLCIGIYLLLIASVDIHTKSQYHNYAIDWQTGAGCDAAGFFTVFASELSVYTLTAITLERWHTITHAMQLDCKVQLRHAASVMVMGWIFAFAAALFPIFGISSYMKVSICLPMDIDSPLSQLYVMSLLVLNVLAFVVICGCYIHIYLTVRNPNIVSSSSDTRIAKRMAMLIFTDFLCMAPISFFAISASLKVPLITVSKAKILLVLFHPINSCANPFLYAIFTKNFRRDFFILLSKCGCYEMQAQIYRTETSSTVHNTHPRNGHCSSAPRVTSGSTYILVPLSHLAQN
# Experiment: HTRF assay for measuring cAMP in cells (FSH antagonism)
# Type: cell-based
# Details: hFSHR clone 16 cells (CHO cells stably transfected with the human FSH receptor); in the presence of 1e-9 mol/l hFSH; 37° C. for 2 h; read-out: IC50 (FSH-antagonistic effect in the HTRF assay)
# Protocol: HTRF Assay for Measuring cAMP in Cells
# The method is based on a competitive immunoassay between native cAMP, which has been produced by the cells, and cAMP which is labelled with XL665. The tracer binding was visualized by a monoclonal antibody, anti-cAMP labelled with cryptate [HTRF=homogeneous time-resolved fluorescence].
# The specific signal is inversely proportional to the cAMP concentration of the samples employed. The 665 nm/620 nm fluorescence ratio was evaluated.
# The following material was used: 96-well plates for the tissue culture, 96-well plates with black edge and black base (e.g. Fluotrac 600 from Greiner), 96-well plates for the substance dilutions of polypropylene and cAMP Femtomolar (4000 wells Kit, CIS Bio International #62AM1PEC).
# The following reagents were used: BSA (bovine serum albumin) Fraction V protease-free, IBMX (3-isobutyl-1-methylxanthine), hFSH (human follicle stimulating hormone), Triton X-100 analytical grade, potassium fluoride analytical grade, G 418 (Geneticin) and Accutase.
# Buffer 1 (washing and testing buffer) contained PBS, 1 mM CaCl2, 1 mM MgCl2, 0.2% glucose; 0.1% BSA, 1 mM IBMX. Buffer 2 (2× lysis buffer) contained 1% Triton X-100 in PBS (without CaCl2 and MgCl2). Buffer 3 (assay buffer) contained 50 mM potassium phosphate buffer (pH 7.0); 800 mM potassium fluoride; 0.2% BSA (always added fresh).
# On day 1, the cells were seeded in 96-well plates (3×10^4 cells per well hFSHR clone 16 cells (CHO cells stably transfected with the human FSH receptor in 150 μl of medium).
# The next day, test substance dilutions were made up. For this purpose, all the substances were diluted in ice-cold buffer 1 (with or without hFSH), and the substance dilutions were placed on ice until applied to the cells.
# The cell supernatant was then aspirated off, and the cells were washed 2× with 200 μl of buffer 1. The cells were treated with 60 μl of the appropriate substance concentrations at 37° C. for 2 h. The cells were then lysed with 60 μl of buffer 2 (put onto the supernatant) (on a plate shaker at RT for 30 min).
# The test conjugates (XL-665 and anti-cAMP cryptate) were diluted in buffer 3 in accordance with the manufacturers' information. The actual mixture for measurement was pipetted into a black 96-well plate (in each case 15 μl of the cell lysate diluted with 35 μl of buffer 1; firstly 25 μl of XL-665 conjugate were pipetted and, after 10 min, 25 μl of the anti-cAMP cryptate were added). This is followed by incubation at RT for 90 minutes. The measurement was carried out in a PheraStar (BMG).
# Dose-effect curve (hFSH) for the human receptor: 1e-8, 3e-9, 1e-9, 3e-10, 1e-10, 3e-11, 1e-11, 3e-12 mol/l.
# The test substances were employed in suitable dilutions in the absence (test for agonism) and in the presence of 1e-9 mol/l hFSH.
# The values of the well ratio were averaged and then entered directly in SigmaPlot versus the concentrations. The maximum and minimum values were determined for each plate, and half the difference is to be regarded as IC50.
row,IC50 [µM],Structure (SMILES)
1,4,"COc1ccccc1C#Cc1ccc(OC(C)C)c(C(=O)NC(CO)Cc2c[nH]c3ncccc23)c1 (centres unmarked) [Example 3, N-[1-Hydroxymethyl-2-(1H-pyrrolo[2,3-b]pyridin-3-yl)-ethyl]-2-isopropoxy-5-(2-methoxy-phenylethynyl)-benzamide]"
2,0.2,"COc1ccccc1C#Cc1ccc(OC(C)C)c(C(=O)NC(CO)Cc2c[nH]c3cccnc23)c1 (centres unmarked) [Example 22, N-[1-Hydroxymethyl-2-(1H-pyrrolo[3,2-b]pyridin-3-yl)-ethyl]-2-isopropoxy-5-(2-methoxy-phenylethynyl)-benzamide]"
3,0.065,"CNC(=O)c1ccc(-c2cc3c(c(C(=O)NC(CO)Cc4c[nH]c5ncccc45)c2)OC(C)(C)C=C3)cc1Cl (centres unmarked) [Example 5, 6-(3-Chloro-4-methylcarbamoyl-phenyl)-2,2-dimethyl-2H-chromene-8-carboxylic acid [2-hydroxy-1-(1H-pyrrolo[2,3-b]pyridin-3-ylmethyl)-ethyl]-amide]"
4,6.5,"CNC(=O)c1ccc(-c2ccc(OC(C)C)c(C(=O)NC(CO)Cc3c[nH]c4cnccc34)c2)cc1Cl (centres unmarked) [Example 39, 3′-Chloro-4-isopropoxy-biphenyl-3,4′-dicarboxylic acid 3-{[2-hydroxy-1-(1H-pyrrolo[2,3-c]pyridin-3-ylmethyl)-ethyl]-amide}4′-methylamide]"
5,5,"CNC(=O)c1ccc(-c2ccc(OC(F)(F)F)c(C(=O)N[C@@H](CO)Cc3n[nH]c4c(F)cccc34)c2)cc1Cl [Example 14, 3′-Chloro-4-trifluoromethoxy-biphenyl-3,4′-dicarboxylic acid 3-{[2-hydroxy-1-(7-fluoro-1H-indazol-3-ylmethyl)-ethyl]-amide}4′-methylamide]"
6,0.07,"CNC(=O)c1cc(F)cc(-c2ccc(OC(C)C)c(C(=O)NC(CO)Cc3cc4ncccc4[nH]3)c2)c1 (centres unmarked) [Example 24, 5′-Fluoro-4-isopropoxy-biphenyl-3,3′-dicarboxylic acid 3-{[1-hydroxymethyl-2-(1H-pyrrolo[3,2-b]pyridin-2-yl)-ethyl]-amide}3′-methyl amide]"
7,5,"COc1ccccc1C#Cc1ccc(OC(C)C)c(C(=O)NC(CO)Cc2c[nH]c3cnccc23)c1 (centres unmarked) [Example 42, N-[2-Hydroxy-1-(1H-pyrrolo[2,3-c]pyridin-3-ylmethyl)-ethyl]-2-isopropoxy-5-(2-methoxy-phenylethynyl)-benzamide]"
8,1.5,"CNC(=O)c1cc(F)cc(-c2ccc(OC(C)C)c(C(=O)NC(CO)Cc3c[nH]c4ncccc34)c2)c1 (centres unmarked) [Example 1, 5′-Fluoro-4-isopropoxy-biphenyl-3,3′-dicarboxylic acid 3-{[2-hydroxy-1-(1H-pyrrolo[2,3-b]pyridin-3-ylmethyl)-ethyl]-amide}3′-methylamide]"

# Further lines, the compound ahead of its results:
row,Structure (SMILES),IC50 [µM]
1,"COc1ccc(-c2cc3c(c(C(=O)NC(CO)Cc4c[nH]c5cccnc45)c2)OCCCC3)cc1OC (centres unmarked) [Example 26, 7-(3,4-Dimethoxy-phenyl)-2,3,4,5-tetrahydro-benzo[b]oxepine-9-carboxylic acid [1-hydroxymethyl-2-(1H-pyrrolo[3,2-b]pyridin-3-yl)-ethyl]-amide]",1
2,"CNC(=O)c1ccc(C#Cc2ccc(OC(F)(F)F)c(C(=O)N[C@@H](CO)Cc3n[nH]c4cccc(F)c34)c2)cc1 (stereo in doubt) [Example 16, N-[2-hydroxy-1-(4-fluoro-1H-indazol-3-ylmethyl)-ethyl]-2-trifluoromethoxy-5-[(4-methylaminocarbonyl-phenyl)-ethynyl]-benzamide]",9
3,"COc1ccc2nc(-c3cc(OC)c(OC)c(OC)c3)cc(C(=O)NC(CO)Cc3ccc4ccccc4c3)c2c1 (centres unmarked) [Example 12, 6-Methoxy-2-(3,4,5-trimethoxy-phenyl)-quinoline-4-carboxylic acid (2-hydroxy-1-naphthalen-2-ylmethyl-ethyl)-amide]",10
4,"COc1ccc2nc(-c3cc(OC)c(OC)c(OC)c3)cc(C(=O)N[C@@H](CO)Cc3ccc4ccccc4c3)c2c1 [Example 9, 6-Methoxy-2-(3,4,5-trimethoxy-phenyl)-quinoline-4-carboxylic acid ((R)-2-hydroxy-1-naphthalen-2-ylmethyl-ethyl)-amide]",8
5,"COc1ccc2nc(-c3ccc(OC)c(F)c3)nc(C(=O)NC(CO)Cc3c[nH]c4cccnc34)c2c1 (centres unmarked) [Example 21, 2-(3-Fluoro-4-methoxy-phenyl)-6-methoxy-quinazoline-4-carboxylic acid [2-hydroxy-1-(1H-pyrrolo[3,2-b]pyridin-3-ylmethyl)-ethyl]-amide]",5
6,"COc1ccc2nc(-c3cc(OC)c(OC)c(OC)c3)cc(C(=O)N[C@@H](CO)Cc3csc4ccccc34)c2c1 [Example 6, 6-Methoxy-2-(3,4,5-trimethoxy-phenyl)-quinoline-4-carboxylic acid ((R)-2-benzo[b]-thiophen-3-yl-1-hydroxy-methyl-ethyl)-amide]",6
